Key:
Test in all cases: Microbial challenge testing in BPW
Format in all cases: cell-based
[1] = tested on: Streptococcus mutans; details: BPW, w/v % in label, average of replicates; for Grade code, S. mutans, 13 Day: 13 days incubation; for Grade code, S. mutans, 30 Days: 30 days incubation
Description: (§1) The microorganisms used in challenge tests are given in Table 3, designated as either ATCC (American Type Culture Collection) or wild type. These wild type organisms were problematic organisms previously isolated from chemical products. In the description for each organism, the bacteria are indicated as either GN (Gram negative) or GP (Gram positive).
(§2) All of the microorganisms were grown in Tryptose Soy Broth (TSB), DIFCO™ available from Becton, Dickinson and Company, containing 1% dextrose. Aspergillus niger and Candida albicans were incubated at 22° C.±2° C. for at least 96 hours. All bacteria were incubated at 35° C.±2° C. in a humidified incubator for at least 96 hours.
(§3) The following procedure was followed to determine the amount of each challenge material (inoculum broth) required to produce a 10^8 cfu/mL challenge, which is equivalent to a final test-sample microbial concentration of 10^5 to 10^6 cfu (colony-forming units)/mL.
(§4) Using a sterile serological pipette, 1 mL of the growth from each TSB culture was transferred into tubes containing 9 mL phosphate buffer (pH 7.2) and mixed thoroughly. This process was repeated to make serial 1:10 dilutions. Then 0.1 mL of each sample and dilution was inoculated onto agar plates to produce the equivalent of a further 1:10 dilution. C. albicans and A. niger were inoculated onto SDA and bacteria were inoculated onto Plate Count Agar (PCA), DIFCO™ available from Becton, Dickinson and Company. The 0.1 mL aliquots were evenly distributed on the plates using the spread-plate technique. The spread-plate technique is performed by spreading the aliquot over the entire plate surface using a sterile spreading rod while rotating the plate with a rotary auto-plater. After the inoculum was absorbed completely, each plate was inverted and incubated (fungi at 22° C.±2° C. and bacteria at 35° C.±2° C.).
(§5) After incubation for at least 48 hours, colonies that had developed on the agar plates were counted and recorded with the corresponding dilution. If counting had to be delayed temporarily, plates were refrigerated, preferably no more than 24 hours, until they could be counted. The number of cfu/mL was determined by multiplying the count by the dilution factor for that particular plate.
(§6) Turbidity in Nepholemetric Turbidity Units (NTU) was measured for each serial dilution using the HF-Micro 100 Model Turbidimeter. For each microorganism, the plate counts were compared to the turbidity readings.
(§7) Control substrates (“broth alone”) were prepared for each microorganism separately in triplicate by adding 13.5 mL of BPW (pH 7.0) containing 1% (w/v) dextrose to each 20-mL glass tube; then adding 1.5 mL challenge material to produce a final concentration at time zero of 10^5 to 10^6 cfu/mL and a total volume of 15 mL.
(§8) Test sample substrates were prepared containing each test material (1,4-CHDM, etc) or combination of test materials at the concentrations shown in Tables 5 and 6. Sample substrates were prepared in triplicate, except those substrates containing PE or CG which were prepared in duplicate. Substrates were prepared by adding BPW containing 1% (w/v) dextrose to each 20-mL glass tube, then adding the test material in the amount appropriate to achieve the desired weight/volume percent (g/100 mL) and to obtain a total volume of BPW with dextrose and test material of 13.5 mL. Then 1.5 mL challenge material was added to produce a final concentration at time zero of 10^5 to 10^6 cfu/mL of the respective organism and a total test sample substrate volume of 15 mL.
(§9) After mixing, all challenged substrates were incubated at 35° C.±2° C. for 14 days and then at ambient room temperature.

[2] = tested on: Escherichia coli; details: for Grade code, E. coli, 3 Day / Grade code, E. coli, 14 Day / Grade code, E. coli, 30 Day: BPW, w/v % in label, average of replicates
Description: as §1, §2, §3, §4, §5, §6, §7, §8, §9

[3] = tested on: Aeromonas sp.; details: for Grade code, Aeromonas sp, 3 Days / Grade code, Aeromonas sp, 14 Days / Grade code, Aeromonas sp, 30 Days: BPW, w/v % in label, average of replicates
Description: as §1, §2, §3, §4, §5, §6, §7, §8, §9

[4] = 3 days incubation, listed as 0.5% AB
[5] = 3 days incubation, listed as 1.25% AB
[6] = 3 days incubation, listed as 2.5% AB
[7] = 14 days incubation, listed as 0.5% AB
[8] = 14 days incubation, listed as 1.25% AB
[9] = 14 days incubation, listed as 2.5% AB
[10] = 30 days incubation, listed as 0.5% AB
[11] = 30 days incubation, listed as 1.25% AB
[12] = 30 days incubation, listed as 2.5% AB

OCC1CCC(CO)CC1 (centres unmarked) [1,4-CHDM, 1,4-cyclohexanedimethanol]
Grade code, S. mutans, 13 Day ([1]; listed as 1.25% AB): 2 (52 to 100 colonies counted (thus 520 to 1000 cfu/mL))
Grade code, S. mutans, 13 Day ([1]; listed as 2.5% AB): 0 (No growth detected or <1 colony (thus <10 cfu/mL))
Grade code, S. mutans, 30 Days ([1]; listed as 0.5% AB): 4 (1001 to 10,000 colonies (thus 10,000 cfu/mL to 100,000 cfu/mL))
Grade code, S. mutans, 30 Days ([1]; listed as 1.25% AB): 2 (52 to 100 colonies counted (thus 520 to 1000 cfu/mL))
Grade code, S. mutans, 30 Days ([1]; listed as 2.5% AB): 0 (No growth detected or <1 colony (thus <10 cfu/mL))
Grade code E. coli ([2]; 0.5%, 3 days incubation): 5 (More than 10,000 colonies estimated (thus >100,000 cfu/mL))
Grade code E. coli ([2]; 0.5%, 14 days incubation): 4 (1001 to 10,000 colonies (thus 10,000 cfu/mL to 100,000 cfu/mL))
Grade code E. coli ([2]; 0.5%, 30 days incubation): 4 (1001 to 10,000 colonies (thus 10,000 cfu/mL to 100,000 cfu/mL))
Grade code E. coli ([2]; 1.25%, 3 days incubation): 4 (1001 to 10,000 colonies (thus 10,000 cfu/mL to 100,000 cfu/mL))
Grade code E. coli ([2]; 1.25%, 14 days incubation): 4 (1001 to 10,000 colonies (thus 10,000 cfu/mL to 100,000 cfu/mL))
Grade code E. coli ([2]; 1.25%, 30 days incubation): 4 (1001 to 10,000 colonies (thus 10,000 cfu/mL to 100,000 cfu/mL))
Grade code E. coli ([2]; 2.5%, 3 days incubation): 3 (101 to 1000 colonies (thus 1000 to 10,000 cfu/mL))
Grade code E. coli ([2]; 2.5%, 14 days incubation): 2 (52 to 100 colonies counted (thus 520 to 1000 cfu/mL))
Grade code E. coli ([2]; 2.5%, 30 days incubation): 0 (No growth detected or <1 colony (thus <10 cfu/mL))
Grade code, E. coli, 3 Day [2, 4]: 5 (More than 10,000 colonies estimated (thus >100,000 cfu/mL))
Grade code, E. coli, 3 Day [2, 5]: 4 (1001 to 10,000 colonies (thus 10,000 cfu/mL to 100,000 cfu/mL))
Grade code, E. coli, 3 Day [2, 6]: 3 (101 to 1000 colonies (thus 1000 to 10,000 cfu/mL))
Grade code, E. coli, 14 Day [2, 7]: 4 (1001 to 10,000 colonies (thus 10,000 cfu/mL to 100,000 cfu/mL))
Grade code, E. coli, 14 Day [2, 8]: 4 (1001 to 10,000 colonies (thus 10,000 cfu/mL to 100,000 cfu/mL))
Grade code, E. coli, 14 Day [2, 9]: 2 (52 to 100 colonies counted (thus 520 to 1000 cfu/mL))
Grade code, E. coli, 30 Day [2, 10]: 4 (1001 to 10,000 colonies (thus 10,000 cfu/mL to 100,000 cfu/mL))
Grade code, E. coli, 30 Day [2, 11]: 4 (1001 to 10,000 colonies (thus 10,000 cfu/mL to 100,000 cfu/mL))
Grade code, E. coli, 30 Day [2, 12]: 0 (No growth detected or <1 colony (thus <10 cfu/mL))
Grade code Aeromonas sp ([3]; 0.5%, 3 days incubation): 5 (More than 10,000 colonies estimated (thus >100,000 cfu/mL))
Grade code Aeromonas sp ([3]; 0.5%, 14 days incubation): 4 (1001 to 10,000 colonies (thus 10,000 cfu/mL to 100,000 cfu/mL))
Grade code Aeromonas sp ([3]; 0.5%, 30 days incubation): 4 (1001 to 10,000 colonies (thus 10,000 cfu/mL to 100,000 cfu/mL))
Grade code Aeromonas sp ([3]; 1.25%, 3 days incubation): 4 (1001 to 10,000 colonies (thus 10,000 cfu/mL to 100,000 cfu/mL))
Grade code Aeromonas sp ([3]; 1.25%, 14 days incubation): 3 (101 to 1000 colonies (thus 1000 to 10,000 cfu/mL))
Grade code Aeromonas sp ([3]; 1.25%, 30 days incubation): 2 (52 to 100 colonies counted (thus 520 to 1000 cfu/mL))
Grade code Aeromonas sp ([3]; 2.5%, 3 days incubation): 3 (101 to 1000 colonies (thus 1000 to 10,000 cfu/mL))
Grade code Aeromonas sp ([3]; 2.5%, 14 days incubation): 1 (1 to 51 colonies counted (thus 10 to 510 cfu/mL))
Grade code Aeromonas sp ([3]; 2.5%, 30 days incubation): 0 (No growth detected or <1 colony (thus <10 cfu/mL))
Grade code, Aeromonas sp, 3 Days [3, 4]: 5 (More than 10,000 colonies estimated (thus >100,000 cfu/mL))
Grade code, Aeromonas sp, 3 Days [3, 5]: 4 (1001 to 10,000 colonies (thus 10,000 cfu/mL to 100,000 cfu/mL))
Grade code, Aeromonas sp, 3 Days [3, 6]: 3 (101 to 1000 colonies (thus 1000 to 10,000 cfu/mL))
Grade code, Aeromonas sp, 14 Days [3, 7]: 4 (1001 to 10,000 colonies (thus 10,000 cfu/mL to 100,000 cfu/mL))
Grade code, Aeromonas sp, 14 Days [3, 8]: 3 (101 to 1000 colonies (thus 1000 to 10,000 cfu/mL))
Grade code, Aeromonas sp, 14 Days [3, 9]: 1 (1 to 51 colonies counted (thus 10 to 510 cfu/mL))
Grade code, Aeromonas sp, 30 Days [3, 10]: 4 (1001 to 10,000 colonies (thus 10,000 cfu/mL to 100,000 cfu/mL))
Grade code, Aeromonas sp, 30 Days [3, 11]: 2 (52 to 100 colonies counted (thus 520 to 1000 cfu/mL))
Grade code, Aeromonas sp, 30 Days [3, 12]: 0 (No growth detected or <1 colony (thus <10 cfu/mL))
